Laboratory results published in patent publication US12517131B2, “Methods for labeling eukaryotic cells from a multicellular organism as well as for treating and/or diagnosing a cancer using modified monosaccharide compounds” (DIAMIDEX, priority 2019, dated 2026).

How the values were obtained:
Assay in all cases: Comparison of labeling of Ara-N3 and KDO-N3
Format in all cases: cell-based, human
Details in all cases: same conditions as in example 2
HeLa = system: HeLa
Raw = system: Raw
Macrophages = system: Macrophages

Measured: labelling of cells (fluorescence intensity)

[N-]=[N+]=NC[C@@H](O)[C@@H](O)[C@H](O)[C@H](O)CC(=O)C(=O)O [KDO-N3, 8-azido-3,8-dideoxy-D-manno-octulosonic acid]
not labelled: all assays above
